Article PMC3641821 (2011)

Columns and labels:
[1] = tested on: D3, d[5'-G3A5T5C3-3'] (DNA, duplex) GGGAAAAATTTTTCCC; assay: ITC; conditions: 100 mM KCl; 10 mM sodium cacodylate, 0.5 mM EDTA, pH 6.8, 25 °C; site 1 of 2
[2] = tested on: D11, d[5'-(AT)8-3'] (DNA, duplex) ATATATATATATATAT; assay: ITC; conditions: 100 mM KCl; 10 mM sodium cacodylate, 0.5 mM EDTA, pH 6.8, 25 °C
[3] = tested on: D9, d[5'-G3(AT)5C3-3'] (DNA, duplex) GGGATATATATATCCC; assay: ITC; conditions: 100 mM KCl; 10 mM sodium cacodylate, 0.5 mM EDTA, pH 6.8, 25 °C
[4] = tested on: D5, d[5'-A12-x-T12-3'] (intramolecular duplex) (DNA, hairpin, x = hexaethylene glycol linker between positions 12 and 13) AAAAAAAAAAAATTTTTTTTTTTT; assay: ITC; conditions: 100 mM KCl; 10 mM sodium cacodylate, 0.5 mM EDTA, pH 6.8, 25 °C; site 1 of 2
[5] = tested on: D8, d[5'-A2GAG2AGAGA2GAGAG2AGA2-3'] 22-mer duplex (DNA, duplex) AAGAGGAGAGAAGAGAGGAGAA/TTCTCCTCTCTTCTCTCCTCTT; assay: ITC; conditions: 100 mM KCl; 10 mM sodium cacodylate, 0.5 mM EDTA, pH 6.8, 25 °C; site 1 of 2
[6] = tested on: D1, d[5'-G3G5C5C3-3'] (DNA, duplex) GGGGGGGGCCCCCCCC; assay: ITC; conditions: 100 mM KCl; 10 mM sodium cacodylate, 0.5 mM EDTA, pH 6.8, 25 °C
[7] = tested on: D2, d[5'-G2A6T6C2-3'] (DNA, duplex) GGAAAAAATTTTTTCC; assay: ITC; conditions: 100 mM KCl; 10 mM sodium cacodylate, 0.5 mM EDTA, pH 6.8, 25 °C; site 1 of 2
[8] = tested on: poly(dA.dT)2 (DNA, polymer) AT; assay: UV melting; conditions: K+ 100 or 150 mM; Na+ 10 mM (cacodylate); rbd 10; per base
[9] = tested on: D4, d[5'-A3G5C5T3-3'] (DNA, duplex) AAAGGGGGCCCCCTTT; assay: ITC; conditions: 100 mM KCl; 10 mM sodium cacodylate, 0.5 mM EDTA, pH 6.8, 25 °C
[10] = tested on: D6, d[5'-A30T30-3'] (DNA, duplex) AAAAAAAAAAAAAAAAAAAAAAAAAAAAAATTTTTTTTTTTTTTTTTTTTTTTTTTTTTT; assay: ITC; conditions: 100 mM KCl; 10 mM sodium cacodylate, 0.5 mM EDTA, pH 6.8, 25 °C; site 1 of 2

| K1 [1] | K1 [2] | K1 [3] | K1 [4] | K1 [5] | K1 [6] | K1 [7] | ΔTm [8] | K1 [9] | K1 [10] | SMILES |
| --- | --- | --- | --- | --- | --- | --- | --- | --- | --- | --- |
| 25.3 ± 10.0 × 10^7 M^-1 | 5.88 ± 2.90 × 10^7 M^-1 | 0.54 ± 0.15 × 10^7 M^-1 | 28.2 ± 12.0 × 10^7 M^-1 | 1.78 ± 1.00 × 10^7 M^-1 | 0.27 ± 0.02 × 10^7 M^-1 | 12.9 ± 3.4 × 10^7 M^-1 | ~ 11 °C | 7.75 ± 1.70 × 10^5 M^-1 | 129.2 ± 54.1 × 10^7 M^-1 | NC[C@@H]1O[C@H](O[C@H]2[C@@H](O)[C@H](O[C@@H]3[C@@H](O)[C@H](N)C[C@H](N)[C@H]3O[C@H]3O[C@H](CN)[C@@H](O)[C@H](O)[C@H]3N)O[C@@H]2CSCCNC(=S)NCCOCCOCCNC(=S)NCCSC[C@H]2O[C@@H](O[C@@H]3[C@@H](O)[C@H](N)C[C@H](N)[C@H]3O[C@H]3O[C@H](CN)[C@@H](O)[C@H](O)[C@H]3N)[C@H](O)[C@@H]2O[C@H]2O[C@@H](CN)[C@@H](O)[C@H](O)[C@H]2N)[C@H](N)[C@@H](O)[C@@H]1O |
|  |  |  |  |  | 3.80 ± 0.18 × 10^5 M^-1 |  |  | 2.02 ± 0.20 × 10^5 M^-1 |  | NC[C@@H]1O[C@H](O[C@H]2[C@@H](O)[C@H](O[C@@H]3[C@@H](O)[C@H](N)C[C@H](N)[C@H]3O[C@H]3O[C@H](CN)[C@@H](O)[C@H](O)[C@H]3N)O[C@@H]2CO)[C@H](N)[C@@H](O)[C@@H]1O |
